# Test results as given in publication PMC12844237, “A Novel Quinolone JH62 (E-2-(Tridec-4-en-1-yl)-quinolin-4(1H)-one) from Pseudomonas aeruginosa Exhibits Potent Anticancer Activity” (Microorganisms, 2025).
# Legend:
# [1] = system: THLE-2: human liver epithelial cell lines; test: WST-1 cell viability, THLE-2; assay type: cell-based; conditions: THLE-2, non-cancer cell line
# Source text: (§1) Different cells were utilized as follows: MEF: murine embryonic fibroblast (RRID: CVCL_L690); AML12: mouse liver cell lines (RRID: CVCL_0140); WI-38: human lung fibroblast cell lines (RRID: CVCL_0579); THLE-2: human liver epithelial cell lines (RRID: CVCL_3803); A549: human lung cancer cell lines (RRID: CVCL_0023); HEPG2: human liver cancer cell lines (RRID: CVCL_0027); HEP3B: human hepatoma cell lines (RRID: CVCL_0326); BxPC3: human pancreatic cancer cell lines (RRID: CVCL_0186); U87: human primary glioblastoma cell lines (RRID: CVCL_0022); DU145: human prostate cancer cell lines (RRID: CVCL_0105); MCF7: human breast cancer cell lines (RRID: CVCL_0031); HeLa: human cervical cancer cell lines (RRID: CVCL_0030); HCT116: human colon cancer cell lines (RRID: CVCL_0291). Cells were maintained in Dulbecco’s modified Eagle’s medium (DMEM, Gibco) supplemented with L-glutamine (Lonza) (2 mM), 10% fetal bovine serum (FBS, Hyclone), 1 × non-essential amino acids, and sodium pyruvate (1 mM). THLE-2 cells were maintained in THLE-2 Cell Complete Medium (Zhong Qiao Xin Zhou, Shanghai, China). Cells were incubated at 37 °C in a humidified incubator with 5% CO2. […]
# (§2) Cell viability was assessed using the WST-1 assay, based on a previously reported method with slight modifications. […] Absorbance at OD450 was measured using a microplate reader (Synergy H1; BioTek Instruments, Winooski, VT, USA).
# [2] = system: WI-38: human lung fibroblast cell lines; test: WST-1 cell viability, WI-38; assay type: cell-based; conditions: WI-38, non-cancer cell line
# Source text: as §1, §2
# [3] = system: AML12: mouse liver cell lines; test: WST-1 cell viability, AML12; assay type: cell-based; conditions: AML12, non-cancer cell line
# Source text: as §1, §2
# [4] = system: A549 cells; test: DNA fragmentation analysis (genomic DNA electrophoresis); assay type: cell-based, human; conditions: A549, 24 h; JH62 5–100 µM, DOX 1 and 5 μM
# Description: Genomic DNA fragmentation was analyzed by agarose gel electrophoresis using previously described methods. A549 cells were seeded in 6 cm tissue culture dishes and cultured overnight. Before treatment with JH62 or DOX, the cells were cultured in DMEM lacking FBS for 16 h. After treatment, the cells were then washed three times with PBS and genomic DNA was extracted using a MasterPure™ DNA Purification Kit (Lucigen Corporation, Middleton, WI, USA). The DNA pellet was airdried and resuspended in Tris-HCl (pH 8.0, 10 mM). DNA samples (2.5 μg) were separated by 1% agarose gel electrophoresis in TAE buffer containing ethidium bromide.
# [5] = system: U87: human primary glioblastoma cell lines; test: WST-1 cell viability, U87; assay type: cell-based; conditions: U87 (glioblastoma) cancer cell line
# Source text: as §1, §2
# [6] = system: HEP3B: human hepatoma cell lines; test: WST-1 cell viability, HEP3B; assay type: cell-based; conditions: HEP3B (liver) cancer cell line
# Source text: as §1, §2
# [7] = system: A549 injected xenograft mouse model; test: Tumorigenicity assay, xenograft mouse model; assay type: in vivo, BALB/c nude mice
# Description: Tumorigenicity assays were performed using BALB/c nude mice, adapted from previously described protocols with slight modifications. To establish the xenograft cancer model, cancer cells (1 × 10^6) were subcutaneously injected into the right dorsal side of 6-week-old male BALB/c nude mice to induce tumor formation. The mice were randomly divided into 2 groups (n = 15). One group served as the control, and the other groups were treated with JH62 at doses of 10 mg/kg, via intraperitoneal injection twice a week. The mice in the control group were administered an equal volume of DMSO as the solvent control. The tumor sizes were measured weekly for three weeks. After that, the mice were sacrificed, and the tumors were isolated and weighed. All animal studies were approved by the Ethics Committee of South China Agricultural University.
# To evaluate the efficacy of JH62 in inhibiting tumorigenesis in vivo, a cancer xenograft model was established by transplanting cancer cells into the right flank of nude mice. The mice were treated with JH62 (10 mg/kg body weight) twice weekly for three weeks, and tumor volume changes were regularly monitored during this period. […] After 20 days of treatment, the average weight of solid tumors in the JH62-treated group was 186.3 mg, compared to 693.4 mg in the control group. The average tumor size in the control group was approximately 900 mm^3, while in the JH62-treated group, it was only about 190 mm^3 (Figure 2H,I).
# [8] = system: A549 cells; test: Comet assay; assay type: cell-based, human; conditions: A549, 1, 8, and 12 h
# Description: Residual DNA damage was detected by alkaline single cell gel electrophoresis (Comet Assay) using the Trevigen Comet Assay Kit (Trevigen, Gaithersburg, MD, USA) following the manufacturer’s protocol with slight modifications. […] The treated cells were trypsinized and pelleted by centrifugation. The cell pellets were washed and resuspended in 2 mL of ice-cold PBS. The cell suspension was mixed 1:10 (vol/vol) with low-melting point agar at 42 °C and immediately pipetted onto a CometSlide™. Slides were incubated at 4 °C in the dark for 30 min, immersed in chilled lysis solution and incubated again at 4 °C for 30 min. Slides were placed in a horizontal electrophoresis chamber and electrophoresed with buffer NaOH (0.3 M) and EDTA (1 mM) at 1 V/cm for 15 min. Samples were dried and stained with Vista Green DNA dye (Cell Biolabs, Singapore). Comet tails were imaged using a model DM 2500 fluorescent microscope (Leica, Wetzlar, Germany) and quantified by Komet 5.5 software (Andor Technology, Belfast, UK). A minimum of 50 cells were scored per treatment. All experiments were performed independently in triplicate.
# [9] = system: A549: human lung cancer cell lines; test: WST-1 cell viability, A549; assay type: cell-based; conditions: for IC50: WST-1; for reduced viability: 24 h
# Source text: Different cells were utilized as follows: MEF: murine embryonic fibroblast (RRID: CVCL_L690); AML12: mouse liver cell lines (RRID: CVCL_0140); WI-38: human lung fibroblast cell lines (RRID: CVCL_0579); THLE-2: human liver epithelial cell lines (RRID: CVCL_3803); A549: human lung cancer cell lines (RRID: CVCL_0023); HEPG2: human liver cancer cell lines (RRID: CVCL_0027); HEP3B: human hepatoma cell lines (RRID: CVCL_0326); BxPC3: human pancreatic cancer cell lines (RRID: CVCL_0186); U87: human primary glioblastoma cell lines (RRID: CVCL_0022); DU145: human prostate cancer cell lines (RRID: CVCL_0105); MCF7: human breast cancer cell lines (RRID: CVCL_0031); HeLa: human cervical cancer cell lines (RRID: CVCL_0030); HCT116: human colon cancer cell lines (RRID: CVCL_0291). Cells were maintained in Dulbecco’s modified Eagle’s medium (DMEM, Gibco) supplemented with L-glutamine (Lonza) (2 mM), 10% fetal bovine serum (FBS, Hyclone), 1 × non-essential amino acids, and sodium pyruvate (1 mM). THLE-2 cells were maintained in THLE-2 Cell Complete Medium (Zhong Qiao Xin Zhou, Shanghai, China). Cells were incubated at 37 °C in a humidified incubator with 5% CO2. A549 cells were previously stored in the lab and other cell lines were a gift from Haishan Wang’s lab (Institute of Molecular and Cell Biology, Singapore). All cell lines were confirmed to be contamination-free.
# Cell viability was assessed using the WST-1 assay, based on a previously reported method with slight modifications. Briefly, cells were seeded at 1 × 10^4 cells per well in 96-well plates and then treated with different doses of JH62 or DOX for 0–72 h. The cells used included non-cancer cells (MEF, AML12, WI-38, and THLE-2) and cancer cells (A549, HEPG2, HEP3B, BxPC3, U87, DU145, MCF7, HeLa, and HCT116). The WST-1 reagent (Roche, Shanghai, China) was added to each well (10% vol/vol final concentration), followed by incubation for 3 h at 37 °C. Absorbance at OD450 was measured using a microplate reader (Synergy H1; BioTek Instruments, Winooski, VT, USA).
compound,measurement,setting,value
"CCCCCCCC/C=C/CCCc1cc(=O)c2ccccc2[nH]1 [JH62, E-2-(tridec-4-en-1-yl)-quinolin-4(1H)-one]",IC50,[1],27.3 ± 4.9 µM
same,IC50,[2],44.1 ± 0.4 µM
same,IC50,[3],37.1 ± 0.7 µM
same,genomic DNA integrity (electrophoresis),[4],genomic DNA integrity remained unchanged
same,IC50,[5],10 ± 0.2 µM
same,IC50,[6],10.8 ± 0.4 µM
same,average weight of solid tumors,"[7]; 10 mg/kg intraperitoneal twice weekly, after 20 days of treatment, control 693.4 mg",186.3 mg
same,average tumor size,"[7]; 10 mg/kg intraperitoneal twice weekly, three weeks, control approximately 900 mm^3",about 190 mm^3
same,reduced tumor volume,"[7]; xenograft mice, 10 mg/kg",79%
same,reduced tumor weight,"[7]; xenograft mice, 10 mg/kg",73%
same,comet tail analysis,[8],maintenance of DNA integrity
same,IC50,[9]; A549 (lung) cancer cell line,14.8 ± 0.1 µM
same,reduced viability,"[9]; A549, 12.5 μM",20%
same,viability decreased,"[9]; A549, 12.5 μM, 32 h",32%
same,viability decreased,"[9]; A549, 12.5 μM, 48 h",19%
same,reduced viability,"[9]; A549, 25 μM",48%
same,viability decreased,"[9]; A549, 25 μM, 32 h",65%
same,viability decreased,"[9]; A549, 25 μM, 48 h",74%
same,reduced viability,"[9]; A549, 50 μM",78%
same,viability decreased,"[9]; A549, 50 μM, 32 h",84%
same,viability decreased,"[9]; A549, 50 μM, 48 h",92%
same,IC50,"[9]; Homo sapiens, A549, A549 (lung) cancer cell line",15 µM
